This note sets out measurements from US20250326726A1, “FERROPTOSIS INHIBITORS-PHENOXAZINE ACETAMIDES” (SIRONAX (BEIJING) CO., LTD., priority 2023, published 2025).

In the assay the test system is HT-1080 cells. As to the kind of experiment: RSL3-induced HT-1080 cells ferroptosis assay (10% FBS). In kind it is cell-based.

Regarding “5-(dimethylamino)-N-((8-(trifluoromethyl)-10H-phenoxazin-3-yl)methyl)pentanamide [Compound 57]”, the “Bioactivity (RSL3-induced HT-1080 cells ferroptosis assay (10% FBS))” value lay within 1 to 100 nM.
